Results on one compound are retold here after patent US20220401385A1, “Combination Therapy Based on PD-1 Signaling Inhibitors” (Kyoto University, priority 2019, published 2022).

Common to all, as to format: cell-based, mice
For one assay, the system named is CD44 high CD8+ T cells. The assay can be described thus: Seahorse OCR, ATP production and SRC in vitro, CD44 high cells. The note with it: SPD 0.2 μM. How it is done: (§1) FIG. 4 CD8^+ T cells were isolated from the spleen of mice without tumor inoculation, and further isolated into CD44^+ (CD44 high) and CD44^− (CD44 low) cell populations. a) CD44 low cells were simulated with CD3/CD28 antibody beads and SPD (0.2 μM). After 30 minutes, 1 hour, 2 hours and 72 hours, OCR was measured with a Seahorse analyzer. b) At the same time, total ATP production and glycolytic pathway-derived or mitochondrial activity-derived ATP production were calculated at 30-minute, 1-hour and 2-hour. c) CD44 low cells (2×10^5 cells) were stimulated with CD3/CD28 antibody beads and SPD (0.2 μM). After 24 hours, cell proliferation was examined by means of 3H uptake. d) Spare respiratory capacity (SRC) was calculated from the OCR measurement after 72 hours in a), and results with and without SPD were compared. e) CD44 low cells were stimulated with CD3/CD28 antibody beads and SPD (0.2 μM). After 24 hours, frequencies between apoptotic and viable cells were calculated by PI and Annexin staining. f-j) CD44 high cells were analyzed under the same conditions and by the same methods as described in a-e) above. As regards statistical analysis, t-test was used for comparison of two groups, and ANOVA was used for comparison of three or more groups. * p<0.05, ** p<0.01, *** p<0.001, **** p<0.0001.
Oxygen consumption rates were measured using an XF96 Extracellular Flux Analyzer (Seahorse Bioscience). CD8^+ T cells (4×10^5) per well were seeded in a determined XF96 plate. The four chemical modulators of mitochondrial oxidative phosphorylation, which came with an XF Cell Mito Stress Test Kit (Seahorse Bioscience), were added to the module sequentially. In brief, basal OCR measurement was performed […] sequential addition of oligomycin, FCCP, and rotenone/antimycin A. SRC and ATP production rates were calculated by the following formulas:
SRC (pmo; 02/min)=OCRmaximal−OCRbasal
mitoATP (pmol ATP/min)=(OCRbasal−OCRoligo)×5.5.

For assay [1], the system named is CD44 low CD8+ T cells. The assay can be described thus: Cell proliferation by 3H uptake in vitro, CD44 low cells. The note with it: SPD 0.2 μM, 24 hours. The method, then:
as §1

In a further assay the test system is AMPK and mTOR signaling. The assay is described as follows: Western blotting of AMPK and mTOR signaling, CD44 low cells. The note with it: presence or absence of SPD 0.2 μM, 1 hour and 2 hours. The method, then:
FIG. 5 CD8^+ T cells were isolated from the spleen of mice without tumor inoculation, and further isolated into CD44^+ (CD44 high) and CD44^− (CD44 low) cell populations. a) CD44 low cells were simulated with CD3/CD28 antibody beads and SPD (0.2 μM). […] Protein expression levels after 1 hour and 2 hours were confirmed by western blotting with the respective indicated antibodies. As regards statistical analysis, t-test was used for comparison of two groups. * p<0.05, ** p<0.01, *** p<0.001, **** p<0.0001.
CD8^+ T cells were isolated using mouse CD8 Microbeads (Miltenyi Biotec or Mojo). After washing with PBS twice, 2×10^6 cells were solubilized in a lysis buffer containing 30 mM Tris-HCl (pH. 7.4), 150 mM NaCl, 10% glycerol, 0.1% SDS, 1% Triton-X-100, 0.05% Na-Doc, 5 mM EDTA (pH. 8.0), protease inhibitor mixture (Roche Molecular Biochemicals) and phosphatase inhibitors (Nacalai Tesque). After measurement of protein concentrations by DC protein assay (Bio-Rad), 4 μg of proteins was mounted on 4 to 20% gradient Mini-PROTEAN TGX Gels (Bio-Rad) and electroblotted onto nitrocellulose membranes, which were then incubated in a blocking buffer of TBS containing 1% BSA. Primary antibody incubations were carried out overnight at 4° C. in blocking buffer. After washing, secondary antibody incubations were carried out at room temperature for 40 min in blocking buffer. […]
For orientation: A western blot detects proteins with antibodies after separation by electrophoresis.

Assay [2] relates to CD44 low CD8+ T cells. The assay is described as follows: Mitochondria-related proteomics in vitro, CD44 low cells. The note with it: late phase, 44 hours after SPD stimulation. The method, then: FIG. 6 CD8^+ T cells were isolated from the spleen of mice without tumor inoculation, and further isolated into CD44^+ (CD44 high) and CD44^− (CD44 low) cell populations. CD44 low cells and CD44 high cells were simulated with CD3/CD28 antibody beads and SPD (0.2 μM). After 1 hour and 44 hours, cells were collected and proteomics analyses regarding mitochondria-related proteins were conducted. A heat map showing the categories of respective signaling pathways, associated protein names and comparison of their expression levels is given.
T cells were prepared by two methods. For in vivo analysis, 13 days after tumor inoculation and 3 days after the start of therapy, draining lymph nodes from 5 mice were pooled, followed by isolation of CD8^+ T cells. From the isolated CD8^+ T cells, three samples each consisting of 1×10^6 cells were prepared and used for analysis. For in vitro experiments, 2×10^5 CD8^+ T cells stimulated with 0.2 μM spermidine for 1 hour were used. For mass spectrometry analysis, a Tandem Mass Tag (TMT) system or a Data Independent Acquisition (DIA) system was used. In the analysis of in vivo CD8^+ T cells (FIG. 3), those proteins which increased by 1.5-fold or more or decreased by 0.6-fold or less were extracted.

The structures appear in SMILES notation. “Also recorded” adds a separate entry of the source.

`NCCCCNCCCN` [SPD, spermidine]: in the assay on CD44 high CD8+ T cells (1 to 2 hours after stimulation), the “ATP production via glycolysis (glyco ATP)” value is “not enhanced” and the “ATP production via mitochondria (mito ATP)” value is on record as “not enhanced”. Further, in the assay with CD44 high CD8+ T cells (30 minutes after stimulation), the ATP production result is listed as “tendency to be enhanced” and the “mitochondrial oxygen consumption (OCR)” value is given as “increased”. Moreover, the “mitochondrial oxygen consumption (OCR)” value in the assay with CD44 high CD8+ T cells (1 hour and 2 hours after stimulation) is reported as “decreased”. Further, the “spare respiratory capacity (SRC)” value in the assay on CD44 high CD8+ T cells (72 hours) was “enhanced; also recorded: significantly high”. Moreover, the “mitochondrial oxygen consumption (OCR)” value with CD44 high CD8+ T cells (72 hours after stimulation) was “increased again”. Besides, the cell proliferation entry in the assay with CD44 low CD8+ T cells [1] is listed as “increased”. In the assay with AMPK and mTOR signaling, the “AMPK and mTOR signaling” value was “did not cause much difference”. The “expression levels of mitochondrial proteins and proteins of mitochondria-related metabolism” value with CD44 low CD8+ T cells [2] was “high”.
